Reference: US8987287B2, “Spirocyclic morphinans and their use” (Purdue Pharma L.P., priority 2012, dated 2015)

Tests used:
κ opioid receptor [1] = biological target: T1, κ opioid receptor (Homo sapiens (Human), UniProt P41145); experiment: κ-opioid receptor radioligand ([3H]-U69,593) dose-displacement binding assay; settings: binding affinity, read-out: Opioid Receptor Ki (nM) κ
Description: κ-Opioid Receptor Binding Assay Procedures: Membranes from recombinantHEK-293 cells, CHO or U-2 OS cells expressing the recombinant human κ opioid receptor (κ) were prepared by lysing cells in ice cold hypotonic buffer (2.5 mM MgCl2, 50 mM HEPES, pH 7.4) (10 mL/10 cm dish) followed by homogenization with a tissue grinder/Teflon pestle. Membranes were collected by centrifugation at 30,000×g for 15 min at 4° C. and pellets were resuspended in hypotonic buffer to a final concentration of 1-3 mg/mL. Protein concentrations were determined using the BioRad protein assay reagent with bovine serum albumen as standard. Aliquots of κ receptor membranes were stored at −80° C.
Radioligand dose displacement assays used 0.4 nM [^3H]-U69,593 (GE Healthcare, Piscataway, N.J.; 40 Ci/mmole) with 15 μg membrane protein (recombinant κ opioid receptor expressed in HEK 293 cells; in-house prep) in a final volume of 200 μl binding buffer (5% DMSO, 50 mM Trizma base, pH 7.4). Non-specific binding was determined in the presence of 10 μM unlabeled naloxone or U69,593. All reactions were performed in 96-well polypropylene plates for 1 hour at a temperature of about 25° C. Binding reactions were terminated by rapid filtration onto 96-well Unifilter GF/C filter plates (Perkin Elmer, Shelton, Conn.) presoaked in 0.5% polyethylenimine (Sigma). Harvesting was performed using a 96-well tissue harvester (Perkin Elmer, Shelton, Conn.) followed by five filtration washes with 200 μl ice-cold binding buffer. Filter plates were subsequently dried at 50° C. for 1-2 hours. Fifty μl/well scintillation cocktail (Perkin Elmer, Shelton, Conn.) was added and plates were counted in a Packard Top-Count for 1 min/well.
(§1) In TABLE 1, binding affinity of certain Compounds of the Invention to the μ-, δ- and κ-opioid receptors was determined as described above.

κ opioid receptor [2] = biological target: T1, κ opioid receptor; experiment: κ-opioid receptor [35S]GTPγS functional assay, HEK-293 or CHO cells; format: biochemical; settings: for Emax: relative to U69,593, HEK-293 or CHO cells
Description: (§2) κ-Opioid Receptor Functional Assay Procedures: Functional [^35S]GTPγS binding assays were conducted as follows. κ opioid receptor membrane solution was prepared by sequentially adding final concentrations of 0.026 μg/μl κ membrane protein (in-house), 10 μg/mL saponin, 3 μM GDP and 0.20 nM [^35S]GTPγS to binding buffer (100 mM NaCl, 10 mM MgCl2, 20 mM HEPES, pH 7.4) on ice. The prepared membrane solution (190 μl/well) was transferred to 96-shallow well polypropylene plates containing 10 μl of 20× concentrated stock solutions of agonist prepared in DMSO. Plates were incubated for 30 min at a temperature of about 25° C. with shaking. Reactions were terminated by rapid filtration onto 96-well Unifilter GF/B filter plates (Perkin Elmer, Shelton, Conn.) using a 96-well tissue harvester (Packard) and followed by three filtration washes with 200 μl ice-cold binding buffer (10 mM NaH2PO4, 10 mM Na2HPO4, pH 7.4). Filter plates were subsequently dried at 50° C. for 2-3 hours. Fifty μl/well scintillation cocktail (Perkin Elmer, Shelton, Conn.) was added and plates were counted in a Packard Top-Count for 1 min/well.
κ-Opioid Receptor Functional Data: κ GTP EC50 is the concentration of a compound providing 50% of the maximal response for the compound at a κ receptor.
κ GTP Emax (%) is the maximal effect elicited by a compound relative to the effect elicited by U69,593.
(§3) In TABLE 2, activity response of certain Compounds of the Invention to the μ-, δ- and κ-opioid receptors was determined as described above for functional assays using HEK-293 or CHO cells.

δ opioid receptor [3] = biological target: T2, δ opioid receptor (Homo sapiens (Human), UniProt P41143); experiment: δ-opioid receptor radioligand ([3H]-Naltrindole) dose-displacement binding assay; settings: binding affinity
T2 sequence (P41143 whole entry, looked up): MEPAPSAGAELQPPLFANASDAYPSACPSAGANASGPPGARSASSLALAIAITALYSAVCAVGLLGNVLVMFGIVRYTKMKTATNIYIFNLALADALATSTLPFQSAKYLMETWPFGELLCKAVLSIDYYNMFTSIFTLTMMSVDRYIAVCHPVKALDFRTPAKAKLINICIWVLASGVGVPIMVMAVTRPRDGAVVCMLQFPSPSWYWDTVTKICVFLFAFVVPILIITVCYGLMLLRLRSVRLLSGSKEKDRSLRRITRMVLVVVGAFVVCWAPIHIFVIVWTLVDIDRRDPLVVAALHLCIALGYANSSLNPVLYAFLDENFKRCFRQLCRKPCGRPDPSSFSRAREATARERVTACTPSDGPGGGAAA
Description: δ-Opioid Receptor Binding Assay Procedures: δ-Opioid Receptor Binding Assay Procedures were conducted as follows. Radioligand dose-displacement assays used 0.3 nM [^3H]-Naltrindole (Perkin Elmer, Shelton, Conn.; 33.0 Ci/mmole) with 5 μg membrane protein (Perkin Elmer, Shelton, Conn.) in a final volume of 500 μl binding buffer (5 mM MgCl2, 5% DMSO, 50 mM Trizma base, pH 7.4). Non-specific binding was determined in the presence of 25 μM unlabeled naloxone. All reactions were performed in 96-deep well polypropylene plates for 1 hour at a temperature of about 25° C. Binding reactions were terminated by rapid filtration onto 96-well Unifilter GF/C filter plates (Perkin Elmer, Shelton, Conn.) presoaked in 0.5% polyethylenimine (Sigma). Harvesting was performed using a 96-well tissue harvester (Perkin Elmer, Shelton, Conn.) followed by five filtration washes with 500 μl ice-cold binding buffer. Filter plates were subsequently dried at 50° C. for 1-2 hours. Fifty μl/well scintillation cocktail (Perkin Elmer, Shelton, Conn.) was added and plates were counted in a Packard Top-Count for 1 min/well.
as §1

δ opioid receptor [4] = biological target: T2, δ opioid receptor; experiment: δ-opioid receptor [35S]GTPγS functional assay, HEK-293 or CHO cells; format: biochemical; settings: for Emax: relative to met-enkephalin, HEK-293 or CHO cells
Description: as §2, with “δ-Opioid” for “κ-Opioid”, “δ” for “κ”, “(Perkin Elmer, Shelton, Conn.),” for “(in-house),”, “1-2” for “2-3”, “Top-count” for “Top-Count”
δ-Opioid Receptor Functional Data: δ GTP EC50 is the concentration of a compound providing 50% of the maximal response for the compound at a δ receptor.
δ GTP Emax (%) is the maximal effect elicited by a compound relative to the effect elicited by met-enkephalin.
as §3

O=C1NC(=O)[C@@]2(CC[C@@]3(O)[C@H]4Cc5ccc(O)cc5[C@@]3(CCN4CC3CC3)C2)N1 [Compound 3, (4bR,4′S,8aS,9R)-11-(cyclopropylmethyl)-3,8a-dihydroxy-5,7,8,8a,9,10-hexahydrospiro[9,4b-(epiminoethano)phenanthrene-6,4′-imidazolidine]-2′,5′-dione]
Ki (κ opioid receptor [1]): 0.6 ± 0.15 nM | EC50 (κ opioid receptor [2]): 54.8 ± 12.6 nM | Emax (κ opioid receptor [2]): 80.2 ± 3.32% | Ki (δ opioid receptor [3]): 177 ± 36.7 nM | EC50 (δ opioid receptor [4]): 34.8 ± 7.78 nM | Emax (δ opioid receptor [4]): 42.5 ± 2.84%

O=C1NC[C@@]2(CC[C@@]3(O)[C@H]4Cc5ccc(O)cc5[C@@]3(CCN4CC3CC3)C2)N1 [Compound 5, (4bR,4′S,8aS,9R)-11-(cyclopropylmethyl)-3,8a-dihydroxy-5,7,8,8a,9,10-hexahydrospiro[9,4b-(epiminoethano)phenanthrene-6,4′-imidazolidin]-2′-one]
Ki (κ opioid receptor [1]): 0.94 ± 0.18 nM | EC50 (κ opioid receptor [2]): 67.2 ± 8.88 nM | Emax (κ opioid receptor [2]): 67.33 ± 0.33% | Ki (δ opioid receptor [3]): 272 ± 25.3 nM | EC50 (δ opioid receptor [4]): 37 ± 15 nM | Emax (δ opioid receptor [4]): 34.3 ± 2.91%
